Values of other authors in paper PMC9710334 (BMJ Open Gastroenterology, 2022).

Legend:
patients with PBC = conditions: approximately ref 1 3; cited from earlier work
treated patients = treated patients ref 37 38; cited from earlier work

Molecule	patients without an optimal biochemical response (patients with PBC)	risk for fragility fractures (treated patients)
C[C@H](CCC(=O)O)[C@H]1CC[C@H]2[C@@H]3[C@@H](O)C[C@@H]4C[C@H](O)CC[C@]4(C)[C@H]3CC[C@]12C [UDCA, ursodeoxycholic acid]	30%–40%	
vantictumab: Wnt pathway inhibitor (antibody, chains of the INN, looked up, V domains shown) VH: EVQLVESGGGLVQPGGSLRLSCAASGFTFSHYTLSWVRQAPGKGLEWVSVISGDGSYTYYADSVKGRFTISSDNSKNTLYLQMNSLRAEDTAVYYCARNFIKYVFANWGQGTLVTVSS VL: DIELTQPPSVSVAPGQTARISCSGDNIGSFYVHWYQQKPGQAPVLVIYDKSNRPSGIPERFSGSNSGNTATLTISGTQAEDEADYYCQSYANTLSLVFGGGTKLTVL		increased risk for fragility fractures
